These are literature values, as cited in paper PMC10879502, “Linking ATP and allosteric sites to achieve superadditive binding with bivalent EGFR kinase inhibitors” (Communications Chemistry, 2024).

The subject of data set [1] is Ba/F3 cells, L858R/T790M EGFR. As to conditions: Ba/F3 ref 4 Wittlinger and Heppner; read-out: EGFR EC50, LR/TM; cited from earlier work.
A further data set has as its system Ba/F3 cells, L858R EGFR. As to conditions: Ba/F3 ref 4 Wittlinger and Heppner; read-out: EGFR EC50, LR; cited from earlier work.
Data set [2] has as its system Ba/F3 cells, LR/TM/CS EGFR. As to conditions: Ba/F3 ref 4 Wittlinger and Heppner; cited from earlier work.
In data set [3] the test system is Ba/F3 cells, wildtype EGFR. As to conditions: Ba/F3 ref 4 Wittlinger and Heppner; read-out: EGFR EC50, wt; cited from earlier work.

SMILES strings stand for the structures.

Regarding `C=CC(=O)Nc1cc(Nc2nccc(-c3cn(C)c4ccccc34)n2)c(OC)cc1N(C)CCN(C)C` [AZD9291], the EC50 was 8 nM in data set [1]; 3.3 ± 0.6 nM in the data set on Ba/F3 cells, L858R EGFR; 1200 ± 130 nM in data set [2]; 110 ± 40 nM in data set [3].
